According to US20050170397A1, “Novel receptors” (Tularik Inc., priority 2000, published 2005):
Entries after “also recorded” stand apart in the source; their conditions may differ. Where no end group is shown, it is not given here.

Key:
[1] = biological target: T1, TGR342 (Homo sapiens, UniProt Q969V1); assay: aequorin luminescence assay of intracellular calcium mobilization, TGR342-transfected cells; assay type: cell-based; conditions: for TGR342 agonist activity at 1 μM / TGR342 agonist activity of MCH-related peptides: FIG. 5; for effect on intracellular calcium levels (peptide library screen): peptides at 1 μM, HEK293 or CHO cells co-transfected with pEF6-V5/TGR342 and pcDNA3/AEQ; for TGR342 agonist activity of MCH-related peptides: concentration not given
T1 construct: The full-length TGR342 cDNA was cloned by; V5 (known only from the vector name pEF6-V5); expressed in transfected cells; host or cells: HEK293 and CHO cells, transient
T1 sequence (Q969V1 whole entry): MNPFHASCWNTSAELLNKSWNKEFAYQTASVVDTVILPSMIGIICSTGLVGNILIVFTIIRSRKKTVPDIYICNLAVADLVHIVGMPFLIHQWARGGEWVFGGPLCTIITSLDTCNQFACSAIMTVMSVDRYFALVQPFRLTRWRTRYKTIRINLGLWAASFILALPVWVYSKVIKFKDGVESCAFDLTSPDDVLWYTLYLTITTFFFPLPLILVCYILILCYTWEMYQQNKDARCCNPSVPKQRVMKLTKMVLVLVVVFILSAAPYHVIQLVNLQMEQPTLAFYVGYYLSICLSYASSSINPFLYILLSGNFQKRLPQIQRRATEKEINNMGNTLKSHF
Description: HEK293 and CHO cells were transiently co-transfected with pEF6-V5/TGR342 and pcDNA3/AEQ (expressing aequorin). After 24 hours of incubation, the transfected cells were treated for one hour with serum free medium containing 2 μM coelenterazine f (Molecular Probes). The cells were then collected in the assay buffer HBSS (Hanks' Balanced Saline Solution containing 10 mM hepes and 0.1% BSA). Thereafter, the transfected cells were stimulated with the peptides at a concentration of 1 μM and the kinetics of […] from the cells was recorded with a microplate luminometer (EG & G BERTHOLT).

[2] = biological target: T1, TGR342; assay: [^125I]-MCH binding to membranes of TGR342-transfected HEK293 cells; conditions: inhibited by excess unlabeled MCH (data not shown)
[3] = biological target: T1, TGR342; assay: Ca^2+ response (aequorin assay) with or without pertussis toxin, TGR342-transfected cells; assay type: cell-based
Description: (§1) The Ca^2+ responses were determined with the aequorin assay. Relative luminescence is expressed as the fold-luminescence of that from the cells treated with the highest cocnetration of the ligand without PTX treatment.
(§2) LPA and ADP, which stimulate Ca^2+ increase through endogenous Gi and Gq receptors, respectively (see, e.g., Moolenaar, Ann. N. Y Acad. Sci. 905:1-10, 2000; Fields et al., Biochem. J. 321:561-571, 1997), were tested as controls. As expected, LPA-induced Ca^2+ response was PTX sensitive while the ADP-induced response was resistant (FIG. 7).

[4] = biological target: T2, MCHR1 (Homo sapiens, UniProt Q99705); assay: Ca^2+ response (aequorin assay) with or without pertussis toxin, MCHR1-transfected cells; assay type: cell-based; conditions: MCH stimulation; 100 ng/ml PTX pretreatment for 16 hr
T2 sequence (Q99705 whole entry): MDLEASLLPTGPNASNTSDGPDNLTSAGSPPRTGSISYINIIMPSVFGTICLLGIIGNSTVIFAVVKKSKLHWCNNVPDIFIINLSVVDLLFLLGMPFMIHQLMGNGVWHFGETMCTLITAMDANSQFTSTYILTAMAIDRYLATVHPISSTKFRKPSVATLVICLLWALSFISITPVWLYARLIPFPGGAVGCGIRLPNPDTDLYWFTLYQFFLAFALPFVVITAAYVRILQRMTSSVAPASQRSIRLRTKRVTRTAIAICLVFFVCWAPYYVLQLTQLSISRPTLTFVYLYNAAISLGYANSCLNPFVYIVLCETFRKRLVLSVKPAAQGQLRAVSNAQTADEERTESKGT
Description: as §1, §2

[5] = biological target: T1, TGR342; assay: inositol phosphate production in TGR342-transfected cells with or without PTX; assay type: cell-based
[6] = test system: endogenous Gq receptors; assay: Ca^2+ response through endogenous Gq receptors with or without PTX (control); assay type: cell-based; conditions: HEK293 cells; 100 ng/ml PTX for 16 hr; FIG. 7
Description: as §1, §2

[7] = biological target: T2, MCHR1; conditions: stated as known; cited from earlier work
[8] = 100 ng/ml PTX pretreatment for 16 hr
[9] = HEK293 (or CHO) cells transfected with pEF6/V5-TGR342

somatostatin-14
TGR342 agonist activity at 1 μM [1]: None of these peptides exhibited activity

α-MSH: the functional MCH antagonist
TGR342 agonist activity at 1 μM [1]: inactive as an agonist | effect on intracellular calcium levels (peptide library screen) [1]: Neither somatostatin nor α-MSH showed any detectable effect

CSCC[C@@H]1NC(=O)[C@@H](NC(=O)[C@H](CCCNC(=N)N)NC(=O)[C@H](CC(C)C)NC(=O)[C@H](CCSC)NC(=O)[C@H](CC(=O)O)NC(=O)[C@H](Cc2ccccc2)NC(=O)[C@@H](N)CC(=O)O)CSSC[C@@H](C(=O)N[C@@H](Cc2c[nH]c3ccccc23)C(=O)N[C@@H](CCC(N)=O)C(=O)N[C@H](C(=O)O)C(C)C)NC(=O)[C@@H]2CCCN2C(=O)[C@H](CCCNC(=N)N)NC(=O)[C@H](Cc2ccc(O)cc2)NC(=O)[C@H](C(C)C)NC(=O)[C@H](CCCNC(=N)N)NC(=O)CNC(=O)[C@H](CC(C)C)NC1=O [MCH, melanin-concentrating hormone]
effect on intracellular calcium levels (peptide library screen) [1]: increased intracellular calcium levels | specificity of binding to TGR342 [2]: specific | PTX sensitivity of the Ca^2+ response, TGR342 [3, 8]: insensitive to PTX treatment | Ca^2+ levels in TGR342-transfected cells [3, 9]: increased levels | PTX sensitivity of the Ca^2+ response, MCHR1 [4]: mostly inhibited | PTX sensitivity of the inositol phosphate response, TGR342 [5, 8]: insensitive to PTX treatment | inositol phosphate levels in TGR342-transfected cells [5, 9]: increased levels; also recorded: increased the production of inositol phosphate

Nc1ncnc2c1ncn2[C@@H]1O[C@H](COP(=O)(O)OP(=O)(O)O)[C@@H](O)[C@H]1O [ADP]
PTX sensitivity of the Ca^2+ response through endogenous Gq receptors [6]: resistant

somatostatin-28
TGR342 agonist activity at 1 μM [1]: None of these peptides exhibited activity

neuropeptide GE: peptide from the same MCH precursor (GSVAFPAENGVQNTESTQE; Neuropeptide-glycine-glutamic acid; UniProt P20382 110-128, looked up)
TGR342 agonist activity of MCH-related peptides [1]: inactive

neuropeptide-EI: peptide from the same MCH precursor (EIGDEENSAKFPI; ends and bridges not checked; UniProt P20382 131-143, looked up)
TGR342 agonist activity of MCH-related peptides [1]: inactive

cortistatin-17
TGR342 agonist activity at 1 μM [1]: None of these peptides exhibited activity

[Phe^13, Tyr^19]-MCH
TGR342 agonist activity of MCH-related peptides [1]: activates | activation of MCHR1 (known) [7]: bind and activate

cortistatin-14 (PCKNFFWKTFSSCK; ends and bridges not checked; cysteine pairing not given here; UniProt Q62949 99-112, looked up) [peptide structurally very similar to somatostatin]
TGR342 agonist activity at 1 μM [1]: None of these peptides exhibited activity
